Measured values taken from US8372871B2, “Histidinol dehydrogenase inhibitors, and use thereof as medicaments” (priority 2008, dated 2013).

Assays:
[1] = biological target: B. suis histidinol dehydrogenase (Brucella suis biovar 1, UniProt Q8G2R2); assay: biochemical; type: biochemical
B. suis = assay: microbe, parasite or virus in culture; type: cell-based, Brucella suis; conditions: for inhibition at 50 µM / inhibition at 100 µM: Brucella suis, 168 h, read-out: Effects on the growth of B. suis (%) (inhibition of bacterial growth)

B. suis histidinol dehydrogenase, sequence (Q8G2R2 whole entry, looked up): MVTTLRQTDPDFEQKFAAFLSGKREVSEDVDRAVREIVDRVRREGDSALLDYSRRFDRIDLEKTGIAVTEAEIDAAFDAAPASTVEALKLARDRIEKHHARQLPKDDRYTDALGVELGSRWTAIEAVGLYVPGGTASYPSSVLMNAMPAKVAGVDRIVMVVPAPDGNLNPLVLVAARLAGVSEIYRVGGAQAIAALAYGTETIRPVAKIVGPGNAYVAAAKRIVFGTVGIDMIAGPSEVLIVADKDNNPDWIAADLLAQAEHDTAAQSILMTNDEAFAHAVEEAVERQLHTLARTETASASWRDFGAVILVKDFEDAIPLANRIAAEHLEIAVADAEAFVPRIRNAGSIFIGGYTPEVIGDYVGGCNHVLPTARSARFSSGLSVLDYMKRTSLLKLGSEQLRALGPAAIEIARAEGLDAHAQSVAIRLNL

| SMILES | IC50 [1] [nM] | melting point | other results |
| --- | --- | --- | --- |
| COc1ccc(-c2ccc(CC(=O)[C@@H](N)Cc3c[nH]cn3)cc2)cc1 [Compound 2c, (3S)-3-amino-4-(1H-imidazol-4-yl)-1-(4′-methoxybiphenyl-4-yl)butan-2-one dihydrochlorhydrate] | 20 | – | inhibition at 50 µM (B. suis): 30%; inhibition at 100 µM (B. suis): 60% |
| N[C@@H](Cc1c[nH]cn1)C(=O)Cc1ccc(-c2ccc(Oc3ccccc3)cc2)cc1 [Compound 2f, (3S)-3-amino-4-(1H-imidazol-4-yl)-1-(4′-phenoxybiphenyl-4-yl)butan-2-one dihydrochlorhydrate] | 70 | – | inhibition at 50 µM (B. suis): 70%; inhibition at 100 µM (B. suis): 90% |
| N[C@@H](Cc1c[nH]cn1)C(=O)Cc1ccc(CCc2ccccc2)cc1 [Compound 2i, (3S)-3-amino-4-(1H-imidazol-4-yl)-1-[4-(2-phenylethyl)phenyl] butan-2-one dihydrochlorhydrate] | 13 | – | – |
| N[C@@H](Cc1c[nH]cn1)C(=O)Cc1ccc(/C=C/c2ccccc2)cc1 (hydrate or solvate) [Compound 2j, (3S)-3-amino-4-(1H-imidazol-4-yl)-1-{4-[(E)-2-phenylvinyl]phenyl}butan-2-one dihydrochlorhydrate] | – | 195 °C (dec.) | – |
| N[C@@H](Cc1c[nH]cn1)C(=O)Cc1ccc(-c2ccc3ccccc3c2)cc1 (hydrate or solvate) [Compound 2h, (3S)-3-amino-4-(1H-imidazol-4-yl)-1-[4-(2-naphthhyl)phenyl] butan-2-one dihydrochlorhydrate] | – | 205 °C (dec.) | – |
| CCCCCc1ccc(C#Cc2ccc(CC(=O)[C@@H](N)Cc3c[nH]cn3)cc2)cc1 [Compound 3d, (3S)-3-amino-4-(1H-imidazol-4-yl)-1-{4-[(4-pentylphenyl)ethynyl]phenyl}butan-2-one dihydrochlorhydrate] | 8.5 | – | inhibition at 50 µM (B. suis): 30%; inhibition at 100 µM (B. suis): 30% |
| N[C@@H](Cc1c[nH]cn1)C(=O)Cc1ccc(CCc2ccccc2)cc1 (hydrate or solvate) [Compound 2i, (3S)-3-amino-4-(1H-imidazol-4-yl)-1-[4-(2-phenylethyl)phenyl] butan-2-one dihydrochlorhydrate] | – | 168 to 170 °C | – |
| N[C@@H](Cc1c[nH]cn1)C(=O)Cc1ccc(-c2ccc(Oc3ccccc3)cc2)cc1 (hydrate or solvate) [Compound 2f, (3S)-3-amino-4-(1H-imidazol-4-yl)-1-(4′-phenoxybiphenyl-4-yl)butan-2-one dihydrochlorhydrate] | – | 198 to 200 °C | – |
| N[C@@H](Cc1c[nH]cn1)C(=O)Cc1ccc(-c2ccc3ccccc3c2)cc1 [Compound 2h, (3S)-3-amino-4-(1H-imidazol-4-yl)-1-[4-(2-naphthhyl)phenyl] butan-2-one dihydrochlorhydrate] | 30 | – | Inhibition of the growth of the bacteria in liquid medium (B. suis): completely inhibit; inhibition at 50 µM (B. suis): 100%; inhibition at 100 µM (B. suis): 100% |
| CCCCc1ccc(-c2ccc(CC(=O)[C@@H](N)Cc3c[nH]cn3)cc2)cc1 (hydrate or solvate) [Compound 2b, (3S)-3-amino-1-(4′-butylbiphenyl-4-yl)-4-(1H-imidazol-4-yl) butan-2-one dihydrochlorhydrate] | – | 155 °C (dec.) | – |
| N[C@@H](Cc1c[nH]cn1)C(=O)Cc1ccc(/C=C/Cc2ccccc2)cc1 (hydrate or solvate) [Compound 2m, (3S)-3-amino-4-(1H-imidazol-4-yl)-1-{4-[(1E)-3-phenylprop-1-en-1-yl]phenyl}butan-2-one dihydrochlorhydrate] | – | 178 to 180 °C | – |
| Cc1ccc(/C=C/c2ccc(CC(=O)[C@@H](N)Cc3c[nH]cn3)cc2)cc1 [Compound 2k, (3S)-3-amino-4-(1H-imidazol-4-yl)-1-{4-[(E)-2-(4-methylphenyl)vinyl]phenyl}butan-2-one dihydrochlorhydrate] | 40 | – | Inhibition of the growth of the bacteria in liquid medium (B. suis): completely inhibit; inhibition at 50 µM (B. suis): 100%; inhibition at 100 µM (B. suis): 100% |
| N[C@@H](Cc1c[nH]cn1)C(=O)Cc1ccc(/C=C/Cc2ccccc2)cc1 [Compound 2m, (3S)-3-amino-4-(1H-imidazol-4-yl)-1-{4-[(1E)-3-phenylprop-1-en-1-yl]phenyl}butan-2-one dihydrochlorhydrate] | 30 | – | – |
| CC(C)(C)c1ccc(C#Cc2ccc(CC(=O)[C@@H](N)Cc3c[nH]cn3)cc2)cc1 [Compound 3c, (3S)-3-amino-1-{4-[(4-tert-butylphenyl)ethynyl]phenyl}-4-(1H-imidazol-4-yl)butan-2-one dihydrochlorhydrate] | 65 | – | inhibition at 50 µM (B. suis): 30%; inhibition at 100 µM (B. suis): 30% |
| N[C@@H](Cc1c[nH]cn1)C(=O)Cc1ccc(/C=C/c2ccccc2)cc1 [Compound 2j, (3S)-3-amino-4-(1H-imidazol-4-yl)-1-{4-[(E)-2-phenylvinyl]phenyl}butan-2-one dihydrochlorhydrate] | 25 | – | – |
| Cc1ccc(/C=C/c2ccc(CC(=O)[C@@H](N)Cc3c[nH]cn3)cc2)cc1 (hydrate or solvate) [Compound 2k, (3S)-3-amino-4-(1H-imidazol-4-yl)-1-{4-[(E)-2-(4-methylphenyl)vinyl]phenyl}butan-2-one dihydrochlorhydrate] | – | 200 °C (dec.) | – |

| SMILES | IC50 [1] [nM] | melting point | other results |
| --- | --- | --- | --- |
| N[C@@H](Cc1c[nH]cn1)C(=O)Cc1ccc(/C=C/c2ccc(-c3ccccc3)cc2)cc1 (hydrate or solvate) | – | 200 °C (dec.) | – |
| Cc1ccc(C#Cc2ccc(CC(=O)[C@@H](N)Cc3c[nH]cn3)cc2)cc1 [Compound 3b, (3S)-3-amino-4-(1H-imidazol-4-yl)-1-{4-[(4-methylphenyl)ethynyl]phenyl}butan-2-one dihydrochlorhydrate] | 40 | – | – |
| N[C@@H](Cc1c[nH]cn1)C(=O)Cc1ccc(/C=C/c2ccc(C(F)(F)F)cc2)cc1 [Compound 2l, (3S)-3-amino-4-(1H-imidazol-4-yl)-1-(4-{(E)-2-[4-(trifluoromethyl)phenyl]vinyl}phenyl) butan-2-one dihydrochlorhydrate] | 65 | – | – |
| N[C@@H](Cc1c[nH]cn1)C(=O)Cc1ccc(-c2ccc(Br)cc2)cc1 (hydrate or solvate) | – | 199 °C (dec.) | – |
| Cc1ccc(C#Cc2ccc(CC(=O)[C@@H](N)Cc3c[nH]cn3)cc2)cc1 (hydrate or solvate) [Compound 3b, (3S)-3-amino-4-(1H-imidazol-4-yl)-1-{4-[(4-methylphenyl)ethynyl]phenyl}butan-2-one dihydrochlorhydrate] | – | 181 °C (dec.) | – |
| N[C@@H](Cc1c[nH]cn1)C(=O)Cc1ccc(C#Cc2ccccc2)cc1 (hydrate or solvate) [Compound 3a, (3S)-3-amino-4-(1H-imidazol-4-yl)-1-[4-(phenylethynyl)phenyl] butan-2-one dihydrochlorhydrate] | – | 194 °C (dec.) | – |
| Cc1ccc(-c2ccc(CC(=O)[C@@H](N)Cc3c[nH]cn3)cc2)cc1 (hydrate or solvate) [Compound 2a, (3S)-3-amino-4-(1H-imidazol-4-yl)-1-(4′-methylbiphenyl-4-yl)butan-2-one dihydrochlorhydrate] | – | 203 °C (dec.) | – |
| N[C@@H](Cc1c[nH]cn1)C(=O)Cc1ccc(-c2ccc(C(F)(F)F)cc2)cc1 (hydrate or solvate) [Compound 2d, (3S)-3-amino-4-(1H-imidazol-4-yl)-1-[4′-(trifluoromethyl)biphenyl-4-yl]butan-2-one dihydrochlorhydrate] | – | 149 °C (dec.) | – |
| COc1ccc(-c2ccc(CC(=O)[C@@H](N)Cc3c[nH]cn3)cc2)cc1 (hydrate or solvate) [Compound 2c, (3S)-3-amino-4-(1H-imidazol-4-yl)-1-(4′-methoxybiphenyl-4-yl)butan-2-one dihydrochlorhydrate] | – | 210 °C (dec.) | – |
| N[C@@H](Cc1c[nH]cn1)C(=O)Cc1ccc(-c2ccc(-c3ccccc3)cc2)cc1 (hydrate or solvate) | – | 200 °C (dec.) | – |
| Cc1ccc(-c2ccc(CC(=O)[C@@H](N)Cc3c[nH]cn3)cc2)cc1 [Compound 2a, (3S)-3-amino-4-(1H-imidazol-4-yl)-1-(4′-methylbiphenyl-4-yl)butan-2-one dihydrochlorhydrate] | 30 | – | inhibition at 50 µM (B. suis): 30%; inhibition at 100 µM (B. suis): 40% |
| CCCCCc1ccc(C#Cc2ccc(CC(=O)[C@@H](N)Cc3c[nH]cn3)cc2)cc1 (hydrate or solvate) [Compound 3d, (3S)-3-amino-4-(1H-imidazol-4-yl)-1-{4-[(4-pentylphenyl)ethynyl]phenyl}butan-2-one dihydrochlorhydrate] | – | 184 °C (dec.) | – |
| CCCCc1ccc(-c2ccc(CC(=O)[C@@H](N)Cc3c[nH]cn3)cc2)cc1 [Compound 2b, (3S)-3-amino-1-(4′-butylbiphenyl-4-yl)-4-(1H-imidazol-4-yl) butan-2-one dihydrochlorhydrate] | 40 | – | inhibition at 50 µM (B. suis): 50%; inhibition at 100 µM (B. suis): 60% |
| N[C@@H](Cc1c[nH]cn1)C(=O)Cc1ccc(-c2ccc(C(F)(F)F)cc2)cc1 [Compound 2d, (3S)-3-amino-4-(1H-imidazol-4-yl)-1-[4′-(trifluoromethyl)biphenyl-4-yl]butan-2-one dihydrochlorhydrate] | 30 | – | inhibition at 50 µM (B. suis): 70%; inhibition at 100 µM (B. suis): 90% |
| N[C@@H](Cc1c[nH]cn1)C(=O)Cc1ccc(C#Cc2ccc(-c3ccccc3)cc2)cc1 (hydrate or solvate) | – | 196 °C (dec.) | – |
| N[C@@H](Cc1c[nH]cn1)C(=O)Cc1ccc(/C=C/c2ccc(C(F)(F)F)cc2)cc1 (hydrate or solvate) [Compound 2l, (3S)-3-amino-4-(1H-imidazol-4-yl)-1-(4-{(E)-2-[4-(trifluoromethyl)phenyl]vinyl}phenyl) butan-2-one dihydrochlorhydrate] | – | 186 °C (dec.) | – |
